This note sets out measurements from patent US7763602B2, “Pyrrole derivatives as antimycobacterial compounds” (priority 2002, dated 2010).

Experiment [1] concerns M. tuberculosis clinical isolates, resistant. The experiment is described as follows: microbe, parasite or virus in culture. It is filed as cell-based, Mycobacterium tuberculosis. The conditions noted are these: for MIC: Mycobacterium tuberculosis; for MIC (μg/ml) against Clinical isolates Resistant: Table I, agar dilution. In general terms: In agar dilution the substance is mixed into plates at graded concentrations.

Experiment [2] concerns M. tuberculosis (Resistant strain). It is filed as in vivo, mice. The note with it: Table V; for Mean Log10 No. of CFU Lung / Mean Log10 No. of CFU Spleen: 5 day/week for 4 week, treated 01 day post-infection; for Mean Log10 No. of reduction Lung / Mean Log10 No. of reduction Spleen: difference from early controls.
[3] abbreviates: read-out: MIC (μg/ml) against Clinical isolates Resistant.

Structures are written as SMILES. In brackets after ≈: the same amount, converted by molar mass. Where two headings read alike, the source gives them in different places. Where only a bound is given, the exact number is not on record here.

For `Cc1c(CN2CCN(c3cccc(C(F)(F)F)c3)CC2)cc(-c2ccc(Cl)cc2)n1-c1ccc(Cl)cc1` [Compound No. 3, 1-{[1,5-bis(4-chlorophenyl)-2-methylpyrrol-3-yl]methyl}-4-(3-trifluoromethylphenyl)piperazine], the MIC in experiment [1] (read-out: MIC (μg/ml) M. tuberculosis Resistant (n = 26)) lay within 0.25 to 0.5 µg/mL (≈ 0.459 to 0.918 µM). In addition, the MIC in experiment [1] (setting [3]) was 0.25 to 0.5 µg/mL (≈ 0.459 to 0.918 µM). Besides, in experiment [2] (12.5 mg/kg), the “Mean Log10 No. of CFU Lung” value stood at 2.98 ± 0.5, the “Mean Log10 No. of CFU Spleen” value is 2.91 ± 0.4, the “Mean Log10 No. of reduction Lung” value is reported as 1.49 and the “Mean Log10 No. of reduction Spleen” value worked out at 1.72. Also, in experiment [2] (25 mg/kg), the “Mean Log10 No. of CFU Lung” value turned out to be 2.3 ± 0.17, the “Mean Log10 No. of CFU Spleen” value came out at 2.2 ± 0.31, the “Mean Log10 No. of reduction Lung” value is 2.17 and the “Mean Log10 No. of reduction Spleen” value was determined as 2.43. In addition, in experiment [2] (50 mg/kg), the “Mean Log10 No. of CFU Lung” value is 1.99 ± 0.3, the “Mean Log10 No. of CFU Spleen” value came to 1.97 ± 0.4, the “Mean Log10 No. of reduction Lung” value stood at 2.48 and the “Mean Log10 No. of reduction Spleen” value turned out to be 2.66.

In the case of `NNC(=O)c1ccncc1` [Isoniazid, reference compound], in experiment [2] (12.5 mg/kg), the “Mean Log10 No. of CFU Lung” value is listed as 5.8 ± 0.4, the “Mean Log10 No. of CFU Spleen” value was 5.79 ± 0.4, the “Mean Log10 No. of reduction Lung” value is −1.33 and the “Mean Log10 No. of reduction Spleen” value was −1.16. In experiment [2] (25 mg/kg), the “Mean Log10 No. of CFU Lung” value is recorded as 5.12 ± 0.6, the “Mean Log10 No. of CFU Spleen” value is listed as 5.43 ± 0.5, the “Mean Log10 No. of reduction Lung” value is −0.65 and the “Mean Log10 No. of reduction Spleen” value is given as −0.8. Further, in experiment [2] (50 mg/kg), the “Mean Log10 No. of CFU Lung” value amounted to 4.43 ± 0.5, the “Mean Log10 No. of CFU Spleen” value is 4.7 ± 0.31, the “Mean Log10 No. of reduction Lung” value is 0.04 and the “Mean Log10 No. of reduction Spleen” value is on record as −0.07. In the case of `Cc1cc(CN2CCN(c3cccc(C(F)(F)F)c3)CC2)c(-c2ccc(Cl)cc2)n1NC(=O)c1cnccn1` [compound 43, N-(2-(4-chlorophenyl)-3-{[4-(3-trifluoromethylphenyl)piperazinyl]methyl}-5-methylpyrrolyl)pyrazin-2-ylcarboxamide], the “MIC (μg/ml) against Clinical isolates Resistant” value (from here on “MIC (μg/ml)”) in experiment [1] was greater than 16.0 µg/mL.

On to `Cc1c(CN2CCN(c3ccc(F)cc3)CC2)cc(-c2ccc(Cl)cc2)n1-c1ccc(F)cc1F` [compound 44, 1-{[1-(2,4-difluorophenyl)-5-(4-chlorophenyl)-2-methylpyrrol-3-yl]methyl}-4-(4-fluorophenyl)piperazine], for which the MIC in experiment [1] (setting [3]) was in the range of 2 to 4 µg/mL (≈ 4.03 to 8.06 µM). As to `Cc1c(CN2CCN(c3cccc(C(F)(F)F)c3)CC2)cc(-c2ccc(Cl)cc2)n1-c1ccc(F)cc1F` [compound 46, 1-{[1-(2,4-difluorophenyl)-5-(4-chlorophenyl)-2-methylpyrrol-3-yl]methyl}-4-(3-trifluoromethylphenyl)piperazine], the MIC in experiment [1] (setting [3]) was 4 to 16 µg/mL (≈ 7.33 to 29.3 µM). On the same count and under the same terms, to `Cc1c(CN2CCN(c3ccccn3)CC2)cc(-c2ccc(Cl)cc2)n1-c1ccc(F)cc1F` [compound 47, 1-{[1-(2,4-difluorophenyl)-5-(4-chlorophenyl)-2-methylpyrrol-3-yl]methyl}-4-(2-pyridyl)piperazine] belongs 1 to 4 µg/mL (≈ 2.09 to 8.35 µM). `Cc1c(CN2CCN(C(c3ccccc3)c3ccccc3)CC2)cc(-c2ccc(Cl)cc2)n1-c1ccc(F)cc1F` [compound 48, 1-{[1-(2,4-difluorophenyl)-5-(4-chlorophenyl)-2-methylpyrrol-3-yl]methyl}-4-(4-diphenylmethyl)piperazine]: the “MIC (μg/ml)” value in experiment [1] is greater than 16.0 µg/mL. Same read-out and setting: then `Cc1c(CN2CCN(Cc3ccc4c(c3)OCO4)CC2)cc(-c2ccc(Cl)cc2)n1-c1ccc(F)cc1F` [compound 50, 5-[(4-{[1-(2,4-difluorophenyl)-5-(4-chlorophenyl)-2-methylpyrrol-3-yl]-methyl}-piperazinyl)methyl]-2H-benzo[d]1,3-dioxolane], with 4.0 to 16.0 µg/mL.

As for `Cc1c(CN2CCN(c3ccc(F)cc3)CC2)cc(-c2ccccc2)n1-c1ccc(F)cc1F` [compound 51, 1-{[1-(2,4-difluorophenyl)-2-methyl-5-phenylpyrrol-3-yl]methyl}-4-(4-fluorophenyl)piperazine], the MIC in experiment [1] (setting [3]) was greater than 16 µg/mL.

Consider `COc1ccccc1N1CCN(Cc2cc(-c3ccccc3)n(-c3ccc(F)cc3F)c2C)CC1` [compound 52, 1-{[1-(2,4-difluorophenyl)-2-methyl-5-phenylpyrrol-3-yl]methyl}-4-(2-methoxyphenyl)piperazine], for which the MIC in experiment [1] (setting [3]) was 8 to 16 µg/mL (≈ 16.9 to 33.8 µM). Take `Cc1c(CN2CCN(c3cccc(C(F)(F)F)c3)CC2)cc(-c2ccccc2)n1-c1ccc(F)cc1F` [compound 53, 1-{[1-(2,4-difluorophenyl)-2-methyl-5-phenylpyrrol-3-yl]methyl}-4-(3-trifluoromethylphenyl)piperazine]: the MIC in experiment [1] (setting [3]) is greater than 16 µg/mL. As to `Cc1c(CN2CCN(c3ccccn3)CC2)cc(-c2ccccc2)n1-c1ccc(F)cc1F` [compound 54, 1-{[1-(2,4-difluorophenyl)-2-methyl-5-phenylpyrrol-3-yl]methyl}-4-(2-pyridyl) piperazine], the MIC in experiment [1] (setting [3]) came out at 4 µg/mL (≈ 9 µM).

With `Cc1cc(CN2CCN(c3ccc(F)cc3)CC2)c(-c2ccccc2)n1-c1ccc(F)cc1F` [compound 55, 1-{[1-(2,4-difluorophenyl)-5-methyl-2-phenylpyrrol-3-yl]methyl}-4-(4-fluorophenyl) piperazine], the MIC in experiment [1] (setting [3]) was greater than 16 µg/mL. On the same count and under the same terms, to `COc1ccccc1N1CCN(Cc2cc(C)n(-c3ccc(F)cc3F)c2-c2ccccc2)CC1` [compound 56, 1-{[1-(2,4-difluorophenyl)-5-methyl-2-phenylpyrrol-3-yl]methyl}-4-(2-methoxyphenyl) piperazine] belongs 8 to 16 µg/mL (≈ 16.9 to 33.8 µM).

For `Cc1cc(CN2CCN(c3cccc(C(F)(F)F)c3)CC2)c(-c2ccccc2)n1-c1ccc(F)cc1F` [compound 57, 1-{[1-(2,4-difluorophenyl)-5-methyl-2-phenylpyrrol-3-yl]methyl}-4-(3-trifluoromethylphenyl)piperazine], in experiment [1] (setting [3]), the MIC is greater than 16 µg/mL.

On to `Cc1cc(CN2CCN(c3ccccn3)CC2)c(-c2ccccc2)n1-c1ccc(F)cc1F` [compound 58, 1-{[1-(2,4-difluorophenyl)-5-methyl-2-phenylpyrrol-3-yl]methyl}-4-(2-pyridyl) piperazine], for which the MIC in experiment [1] (setting [3]) lay within 8 to 16 µg/mL (≈ 18 to 36 µM). Take `COc1ccccc1N1CCN(Cc2cc(-c3ccc(Cl)cc3)n(-c3cccc4ccccc34)c2C)CC1` [compound 59, 1-{[5-(4-chlorophenyl)-2-methyl-1-naphthylpyrrol-3-yl]methyl}-4-(2-methoxyphenyl)piperazine]: the “MIC (μg/ml)” value in experiment [1] is greater than 16.0 µg/mL. In the case of `Cc1c(CN2CCN(c3cccc(C(F)(F)F)c3)CC2)cc(-c2ccc(Cl)cc2)n1-c1cccc2ccccc12` [compound 60, 1-{[5-(4-chlorophenyl)-2-methyl-1-naphthylpyrrol-3-yl]methyl}-4-(3-trifluoromethylphenyl)piperazine], the “MIC (μg/ml)” value in experiment [1] is 4.0 to 16.0 µg/mL. Regarding `Cc1c(CN2CCN(c3ccccn3)CC2)cc(-c2ccc(Cl)cc2)n1-c1cccc2ccccc12` [compound 61, 1-{[5-(4-chlorophenyl)-2-methyl-1-naphthylpyrrol-3-yl]methyl}-4-(2-pyridyl) piperazine], the “MIC (μg/ml)” value in experiment [1] fell in the range of 4.0 to 8.0 µg/mL.

Take `Cc1c(CN2CCN(Cc3ccc4c(c3)OCO4)CC2)cc(-c2ccc(Cl)cc2)n1-c1cccc2ccccc12` [compound 62, 5-[(4-{[5-(4-chlorophenyl)-2-methyl-1-naphthylpyrrol-3-yl]methyl}-piperazinyl)methyl]-2H-benzo[d]1,3-dioxolane]: the “MIC (μg/ml)” value in experiment [1] is greater than 16.0 µg/mL. Same read-out and setting: to `COc1ccccc1N1CCN(Cc2cc(C)n(-c3cccc4ccccc34)c2-c2ccc(Cl)cc2)CC1` [compound 63, 1-{[2-(4-chlorophenyl)-5-methyl-1-naphthylpyrrol-3-yl]methyl}-4-(2-methoxyphenyl)piperazine] belongs 4.0 to 16.0 µg/mL.

Consider `Cc1cc(CN2CCN(c3cccc(C(F)(F)F)c3)CC2)c(-c2ccc(Cl)cc2)n1-c1cccc2ccccc12` [compound 64, 1-{[2-(4-chlorophenyl)-5-methyl-1-naphthylpyrrol-3-yl]methyl}-4-(3-trifluoromethylphenyl)piperazine], for which, in experiment [1], the “MIC (μg/ml)” value is greater than 16.0 µg/mL. Consider `Cc1c(CN2CCS(=O)(=O)CC2)cc(-c2ccccc2)n1-c1ccccc1` [compound 88], for which the “MIC (μg/ml)” value in experiment [1] is 2.0 to 8.0 µg/mL. The same measure, in the same setting: then `Cc1c(CN2CCSCC2)cc(-c2ccc(Cl)cc2)n1NC(=O)c1ccncc1` [compound 89, N-[5-(4-chlorophenyl)-2-methyl-3-(1,4-thiazaperhydroin-4-ylmethyl)pyrrolyl]-4-pyridylcarboxamide], with 4.0 to 8.0 µg/mL; and `CCC(CO)n1c(C)c(CN2CCSCC2)c(CO)c1-c1ccccc1` (stereo not shown) [compound 90, 2-[3-(hydroxymethyl)-5-methyl-2-phenyl-4-(1,4-thiazaperhydroin-4-ylmethyl)-pyrrolyl]butan-1-ol], with greater than 16.0 µg/mL.
